Experiments:
[1] = Antagonist activity at human CCR4 expressed in Th2 cells coexpressing CD45RA+ assessed as inhibition of CCL17 induced chemotaxis
[2] = Antagonist activity at human CCR4 expressed in Th2 cells coexpressing CD45RA+ assessed as inhibition of CCL22 induced chemotaxis
[3] = Antagonist activity at CCR4 in human primary Th2 cells by chemotaxis assay

IC50 [1] | IC50 [2] | IC50 [3] | Structure (SMILES)
501 nM | 501 nM |  | COc1nccnc1NS(=O)(=O)c1cccc(Cl)c1Cl
316 nM | 158 nM |  | COc1nc(F)cnc1NS(=O)(=O)c1cccc(Cl)c1Cl
 |  | 200 nM | COc1nc(Br)cnc1NS(=O)(=O)c1ccc(Cl)s1

Source: BindingDB's records for doi:10.1021/acsmedchemlett.7b00315 (Astrazeneca, 2017)
